Target: T1, PDE4B catalytic zone (PDE4Bcat) (Homo sapiens, UniProt Q07343)
T1 construct: made in house; host or cells: Sf9 insect cells (baculovirus, Bac-to-Bac / Gateway)
Test: Phosphodiesterase 4 inhibitory activity ([3H]-cAMP, recombinant PDE4Bcat)
Type: biochemical
Conditions: 30° C. 20 minutes, read-out: IC50 (μmol/L) PDE4

T1 sequence (Q07343 330-659 limits assumed): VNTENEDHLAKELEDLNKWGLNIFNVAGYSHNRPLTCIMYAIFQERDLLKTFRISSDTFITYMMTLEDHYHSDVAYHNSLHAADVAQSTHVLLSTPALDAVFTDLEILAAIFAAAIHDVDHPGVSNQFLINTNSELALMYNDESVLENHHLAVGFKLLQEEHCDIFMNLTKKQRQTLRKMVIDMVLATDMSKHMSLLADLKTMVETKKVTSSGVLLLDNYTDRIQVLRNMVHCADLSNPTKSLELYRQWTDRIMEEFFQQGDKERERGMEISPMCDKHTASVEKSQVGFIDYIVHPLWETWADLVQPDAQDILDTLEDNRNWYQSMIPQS

| Structure (SMILES) | IC50 [µmol/L] |
| --- | --- |
| COc1ccc(-c2ccc3[nH]c(=O)ccc3c2)c2cc(C(F)(F)F)nn12 [Example 50, 6-(7-Methoxy-2-trifluoromethylpyrazolo[1,5-a]pyridin-4-yl)quinolin-2(1H)-one] | < 0.01 |
| COc1ccc(-c2cc(=O)[nH]c3ccccc23)c2cc(C(F)(F)F)nn12 [Example 51, 4-(7-Methoxy-2-trifluoromethylpyrazolo[1,5-a]pyridin-4-yl)quinolin-2(1H)-one] | 0.01 to 0.1 |
| COc1ccc(-c2cccc3c(=O)[nH]ccc23)c2cc(C(F)(F)F)nn12 [Example 52, 5-(7-Methoxy-2-trifluoromethylpyrazolo[1,5-a]pyridin-4-yl)iso quinolin-1(2H)-one] | 0.01 to 0.1 |
| COc1ccc(-c2ccc3cc[nH]c(=O)c3c2)c2cc(C(F)(F)F)nn12 [Example 54, 7-(7-Methoxy-2-trifluoromethylpyrazolo[1,5-a]pyridin-4-yl)iso quinolin-1(2H)-one] | < 0.01 |
| COc1ccc(-c2ccc3c(c2)CCC(=O)N3)c2cc(C(F)(F)F)nn12 [Example 56, 6-(7-Methoxy-2-trifluoromethylpyrazolo[1,5-a]pyridin-4-yl)-3,4-dihydroquinolin-2(1H)-one] | 0.01 to 0.1 |
| COc1ccc(-c2ccc3c(c2)CC(=O)N3)c2cc(C(F)(F)F)nn12 [Example 57, 5-(7-Methoxy-2-trifluoromethylpyrazolo[1,5-a]pyridin-4-yl)indolin-2-one] | 0.01 to 0.1 |
| COc1ccc(-c2ccc3[nH]c(=O)ccc3c2)c2c(Cl)c(C(F)(F)F)nn12 [Example 61, 6-(3-Chloro-7-methoxy-2-trifluoromethylpyrazolo[1,5-a]pyridin-4-yl)quinolin-2(1H)-one] | < 0.01 |
| CNc1ccc(-c2ccc3[nH]c(=O)ccc3c2)c2c(Cl)c(C(F)(F)F)nn12 [Example 65, 6-(3-Chloro-7-methylamino-2-trifluoromethylpyrazolo[1,5-a]pyridin-4-yl)quinolin-2(1H)-one] | < 0.01 |
| CNc1ccc(-c2ccc3c(c2)CCNC3=O)c2c(Cl)c(C(F)(F)F)nn12 [Example 66] | < 0.01 |
| CCc1ccc2c(-c3ccc4[nH]c(=O)ccc4c3)ccc(OC)c2n1 [Example 67, 2-Ethyl-8-methoxy-5,6′-biquinolin-2′(1′H)-one] | 0.01 to 0.1 |
| COc1ccc(-c2ccc3[nH]c(=O)ccc3c2)c2ccc(C)nc12 [Example 68, 8-Methoxy-2-methyl-5,6′-biquinolin-2′(1′H)-one] | 0.01 to 0.1 |
| COc1ccc(-c2ccc3[nH]c(=O)ccc3c2)c2ccc(C(F)(F)F)nc12 [Example 69, 8-Methoxy-2-trifluoromethyl-5,6′-biquinolin-2′(1′H)-one] | 0.01 to 0.1 |
| COc1ccc(-c2ccc3[nH]c(=O)ccc3c2)c2nc(C(F)(F)F)nn12 [Example 70, 6-(5-Methoxy-2-trifluoromethyl[1,2,4]triazolo[1,5-a]pyridin-8-yl) quinolin-2(1H)-one] | < 0.01 |
| COc1ccc(-c2ccc3[nH]c(=O)ccc3c2)c2sc(C(F)(F)F)nc12 [Example 71, 6-(4-Methoxy-2-trifluoromethylbenzo[d]thiazol-7-yl)quinolin-2(1H)-one] | < 0.01 |
| COc1ccc(-c2ccc3[nH]c(=O)ccc3c2)c2c1OCNC2=O [Example 72, 8-Methoxy-5-(2-oxo-1,2-dihydroquinolin-6-yl)-2H-benzo[e][1,3]oxazin-4-(3H)-one] | 0.01 to 0.1 |
| COc1ccc(-c2ccc3[nH]c(=O)ccc3c2)c2c1OCC(=O)N2 [Example 74, 8-Methoxy-5-(2-oxo-1,2-dihydroquinolin-6-yl)-2H-benzo[b][1,4]oxazin-3(4H)-one] | 0.01 to 0.1 |
| COc1ccc(-c2ccc3c(=O)[nH]ccc3c2)c2cccnc12 [Example 80, 6-(8-Methoxyquinolin-5-yl)isoquinolin-1(2H)-one] | 0.01 to 0.1 |
| CCc1ccc2c(-c3ccc4cc[nH]c(=O)c4c3)ccc(OC)c2n1 [Example 83, 7-(2-Ethyl-8-methoxyquinolin-5-yl)isoquinolin-1(2H)-one] | 0.01 to 0.1 |
| COc1ccc(-c2ccc3[nH]c(=O)ccc3c2)c2nccnc12 [Example 86, 6-(8-Methoxyquinoxalin-5-yl)quinolin-2(1H)-one] | < 0.01 |
| CCc1cc2c(-c3ccc4[nH]c(=O)ccc4c3)ccc(OC)n2n1 [Example 87, 6-(2-Ethyl-7-methoxypyrazolo[1,5-a]pyridin-4-yl)quinolin-2(1H)-one] | 0.01 to 0.1 |
| COc1ccc(-c2ccc3[nH]c(=O)ccc3c2)c2cncnc12 [Example 88, 6-(8-methoxyquinazolin-5-yl)quinolin-2(1H)-one] | 0.01 to 0.1 |
| COc1ccc(-c2ccc3[nH]c(=O)ccc3c2)n2cc(C(F)(F)F)nc12 [Example 90, 6-(8-Methoxy-2-trifluoromethylimidazo[1,2-a]pyridin-5-yl)quinolin-2(1H)-one] | 0.01 to 0.1 |

| Structure (SMILES) | IC50 [µmol/L] |
| --- | --- |
| COc1ccc(-c2ccc3c(ccc(=O)n3C)c2)c2cc(C(F)(F)F)nn12 [Example 91, 6-(7-Methoxy-2-trifluoromethylpyrazolo[1,5-a]pyridin-4-yl)-1-methyl quinolin-2(1H)-one] | < 0.01 |
| CCOC(=O)Cn1c(=O)ccc2cc(-c3ccc(OC)n4nc(C(F)(F)F)cc34)ccc21 [Example 92, Ethyl 2-(6-(7-methoxy-2-trifluoromethylpyrazolo[1,5-a]pyridin-4-yl)-2-oxo-quinolin-2(1H)-yl)acetate] | 0.01 to 0.1 |
| COc1ccc(-c2ccc3c(ccc(=O)n3CC(=O)O)c2)c2cc(C(F)(F)F)nn12 [Example 93, 2-(6-(7-Methoxy-2-trifluoromethylpyrazolo[1,5-a]pyridin-4-yl)-2-oxoquinolin-2(1H)-yl)acetic acid] | 0.01 to 0.1 |
| COc1ccc(-c2ccc3c(ccc(=O)n3Cc3ccccc3)c2)c2cc(C(F)(F)F)nn12 [Example 94, 1-Benzyl-6-(7-methoxy-2-trifluoromethylpyrazolo[1,5-a]pyridin-4-yl)quinolin-2(1H)-one] | < 0.01 |
| COc1ccc(-c2ccc3[nH]c(=O)ccc3c2)c2cc(C(F)(F)F)sc12 [Example 111] | 0.01 to 0.1 |
| CCc1nc2c(OC)ccc(-c3ccc4[nH]c(=O)ccc4c3)c2o1 [Example 112, 6-(2-Ethyl-4-methoxybenzo[d]oxazol-7-yl)quinolin-2(1H)-one] | < 0.01 |
| COc1ccc(-c2ccc3[nH]c(=O)ccc3c2)c2cc(C3CC3)nn12 [Example 114, 6-(2-Cyclopropyl-7-methoxypyrazolo[1,5-a]pyridin-4-yl)quinolin-2(1H)-one] | < 0.01 |
| COc1ccc(-c2ccc3c(c2)CCC(=O)N3)c2c(Cl)c(C(F)(F)F)nn12 [Example 116, 6-(3-Chloro-7-methoxy-2-trifluoromethylpyrazolo[1,5-a]pyridin-4-yl)-3,4-dihydroquinolin-2(1H)-one] | 0.01 to 0.1 |
| COc1ccc(-c2ccc3c(c2)CCC(=O)N3C)c2c(Cl)c(C(F)(F)F)nn12 [Example 117, 6-(3-Chloro-7-methoxy-2-trifluoromethylpyrazolo[1,5-a]pyridin-4-yl)-1-methyl-3,4-dihydroquinolin-2(1H)-one] | 0.01 to 0.1 |
| COc1ccc(-c2ccc3[nH]c(=O)ccc3c2)c2[nH]c(C(F)(F)F)nc12 [Example 118, 6-(4-Methoxy-2-trifluoromethyl-1H-benzo[d]imidazol-7-yl)quinolin-2(1H)-one; or 6-(7-methoxy-2-trifluoromethyl-1H-benzo[d]imidazol-4-yl)quinolin-2(1H)-one] | 0.01 to 0.1 |
| COc1ccc(-c2ccc3[nH]c(=O)ccc3c2)c2cc(C(F)(F)F)oc12 [Example 119, 6-(7-Methoxy-2-trifluoromethylbenzofuran-4-yl)quinolin-2(1H)-one] | < 0.01 |
| COc1ccc(-c2ccc3[nH]c(=O)ccc3c2)c2cccnc12 [Example 120, 6-(8-Methoxyquinolin-5-yl)quinolin-2(1H)-one] | 0.01 to 0.1 |
| COc1ccc(-c2ccc3c(c2)CC(C)NC3=O)c2cc(C(F)(F)F)nn12 (stereo not shown) [Example 122, 6-(7-Methoxy-2-trifluoromethylpyrazolo[1,5-a]pyridin-4-yl)-3-methyl-3,4-dihydroisoquinolin-1(2H)-one] | 0.01 to 0.1 |
| COc1ccc(-c2ccc3c(=O)[nH]cc(Cl)c3c2)c2c(Cl)c(C(F)(F)F)nn12 [Example 125, 4-Chloro-6-(3-chloro-7-methoxy-2-trifluoromethylpyrazolo[1,5-a]pyridin-4-yl)isoquinolin-1(2H)-one] | < 0.01 |
| COc1ccc(-c2ccc3c(=O)[nH]cc(Cl)c3c2)n2c(Cl)c(C(F)(F)F)nc12 [Example 126, 4-Chloro-6-(3-chloro-8-methoxy-2-trifluoromethylimidazo[1,2-a]pyridin-5-yl)isoquinolin-1(2H)-one] | < 0.01 |
| CNc1ccc(-c2ccc3c(ccc(=O)n3C)c2)c2c(Cl)c(C(F)(F)F)nn12 [Example 137] | < 0.01 |
| CNc1ccc(-c2ccc3c(=O)[nH]cc(Cl)c3c2)c2cc(C(F)(F)F)nn12 [Example 138, 4-Chloro-6-(7-(methylamino)-2-trifluoromethylpyrazolo[1,5-a]pyridin-4-yl)isoquinolin-1(2H)-one] | < 0.01 |
| CNc1ccc(-c2ccc3c(=O)[nH]cc(Cl)c3c2)c2c(Cl)c(C(F)(F)F)nn12 [Example 139, 4-Chloro-6-(3-chloro-7-(methylamino)-2-trifluoromethylpyrazolo[1,5-a]pyridin-4-yl)isoquinolin-1(2H)-one] | < 0.01 |
| Nc1ccc(-c2ccc3[nH]c(=O)ccc3c2)c2cc(C(F)(F)F)nn12 [Example 140, 6-(7-Amino-2-trifluoromethylpyrazolo[1,5-a]pyridin-4-yl)quinolin-2(1H)-one] | < 0.01 |
| Nc1ccc(-c2ccc3c(=O)[nH]cc(Cl)c3c2)c2cc(C(F)(F)F)nn12 [Example 141, 6-(7-Amino-2-trifluoromethylpyrazolo[1,5-a]pyridin-4-yl)-4-chloro isoquinolin-1(2H)-one] | 0.01 to 0.1 |
| CNc1ccc(-c2ccc3c(=O)[nH]cc(Cl)c3c2)n2cc(C(F)(F)F)nc12 [Example 144, 4-Chloro-6-(8-(methylamino)-2-trifluoromethylimidazo[1,2-a]pyridin-5-yl)isoquinolin-1(2H)-one] | < 0.01 |
